For series [1], the system named is HBV (HepG2.117 cell line, inducibly HBV producing). In words: Anti-HBV activity: intracellular HBV DNA by real-time PCR in HepG2.117 cells after 3 days of treatment. Type of series: cell-based, hepatitis B virus. Particulars: Hepatitis B virus, HepG2.117, 72 h, HepG2.117 cells, 3 days of treatment, intracellular HBV DNA by real-time PCR; mean value; read-out: EC50 (μM, mean value). The gist of the method: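 HepG2.117 cells replicate HBV under Tet-off control, without doxycycline. After induction of replication, cells were treated with serially diluted compound for 3 days, and intracellular HBV DNA was then quantified by real-time PCR with an HBV-specific primer set and probe.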

Another series in a line: in vitro. Type of series: cell-based. Particulars: human, HepG2 or HepG2.117 cells, 3-days incubation (unmarked values), ATPlite; mean value. The gist of the method:
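Luminescent ATP quantitation served as the viability endpoint following a 3- or 4-day incubation with test compounds.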
In general terms: Cellular ATP, detected with luciferase, serves as a proxy for viable cell number.

In general, EC50 refers to the concentration at which the effect is half-maximal. As a reminder, the CC50 is the concentration at which the toxic effect on the cells reaches its halfway point. Lower therefore signals greater toxicity to the cells.

Each structure is given as a SMILES string. Bounds are passed on as bounds.

On to `CNC(=O)[C@H]1CC[C@@H](n2c(NC(C)C)nc3c(c2=O)C[C@@H](C)N(C(=O)c2ccc(Cl)c(Cl)c2)C3)CC1` [Compound C280, cis-4-[(6R)-7-(3,4-dichlorobenzoyl)-6-methyl-4-oxo-2-[(propan-2-yl)amino]-5,6,7,8-tetrahydropyrido[3,4-d]pyrimidin-3(4H)-yl]-N-methylcyclohexane-1-carboxamide], for which the EC50 in series [1] worked out at 0.1 µM. The compound further returned a cytotoxic concentration (CC50) at 3 days in the series “in vitro” of 24.6 µM.
For `CNC(=O)c1ccc(-n2c(NC(C)C)nc3c(c2=O)C[C@@H](C)N(C(=O)c2ccc(Cl)c(Cl)c2)C3)nn1` [Compound C281, 6-[(6R)-7-(3,4-dichlorobenzoyl)-6-methyl-4-oxo-2-[(propan-2-yl)amino]-5,6,7,8-tetrahydropyrido[3,4-d]pyrimidin-3(4H)-yl]-N-methylpyridazine-3-carboxamide], the concentration for a half-maximal effect (EC50) in series [1] worked out at 0.16 µM. Besides, in “in vitro”, the CC50 at 3 days is over 50 µM.
As to `CNC(=O)c1ccc(-n2c(NCc3ccc4[nH]ccc4c3)nc3c(c2=O)C[C@@H](C)N(C(=O)c2ccc(Cl)c(Cl)c2)C3)cc1` [Compound C284, 4-[(6R)-7-(3,4-dichlorobenzoyl)-2-{[(1H-indol-5-yl)methyl]amino}-6-methyl-4-oxo-5,6,7,8-tetrahydropyrido[3,4-d]pyrimidin-3(4H)-yl]-N-methylbenzamide], in series [1], the EC50 came to 0.13 µM. Also, the half-maximal cytotoxic concentration (CC50) at 3 days in the series “in vitro” was over 50 µM.
Taken in the same sequence, the figures for `CNC(=O)c1cnc(-n2c(NC)nc3c(c2=O)C[C@@H](C)N(C(=O)c2ccc(Cl)c(Cl)c2)C3)cn1` [Compound C287, 5-[(6R)-7-(3,4-dichlorobenzoyl)-6-methyl-2-(methylamino)-4-oxo-5,6,7,8-tetrahydropyrido[3,4-d]pyrimidin-3(4H)-yl]-N-methylpyrazine-2-carboxamide] were 0.75 µM and over 50 µM.
The like results for `CNC(=O)c1cnc(-n2c(NC(C)C)nc3c(c2=O)C[C@@H](C)N(C(=O)c2ccc(Cl)c(Cl)c2)C3)cn1` [Compound C288, 5-[(6R)-7-(3,4-dichlorobenzoyl)-6-methyl-4-oxo-2-[(propan-2-yl)amino]-5,6,7,8-tetrahydropyrido[3,4-d]pyrimidin-3(4H)-yl]-N-methylpyrazine-2-carboxamide] were, in that order, 0.07 µM and over 50 µM.
Taken in the same sequence, the figures for `CNC(=O)c1ccc(-n2c(OC(C)C)nc3c(c2=O)C[C@@H](C)N(C(=O)c2ccc(Cl)c(Cl)c2)C3)cc1` [Compound C289, 4-[(6R)-7-(3,4-dichlorobenzoyl)-6-methyl-4-oxo-2-[(propan-2-yl)oxy]-5,6,7,8-tetrahydropyrido[3,4-d]pyrimidin-3(4H)-yl]-N-methylbenzamide] were 0.08 µM and over 50 µM.
With `CNC(=O)c1cc(-n2c(NC(C)C)nc3c(c2=O)C[C@@H](C)N(C(=O)c2ccc(Cl)c(Cl)c2)C3)nn1C` [Compound C292, 3-[(6R)-7-(3,4-dichlorobenzoyl)-6-methyl-4-oxo-2-[(propan-2-yl)amino]-5,6,7,8-tetrahydropyrido[3,4-d]pyrimidin-3(4H)-yl]-N,1-dimethyl-1H-pyrazole-5-carboxamide], the EC50 in series [1] was determined as 0.04 µM. Further, the CC50 at 3 days in the series “in vitro” is over 50 µM.
The like results for `CNC(=O)c1ccc(-n2c(NC(C)C)nc3c(c2=O)C[C@@H](C)N(C(=O)c2ccc(Cl)c(Cl)c2)C3)c(Cl)c1` [Compound C293, 3-chloro-4-[(6R)-7-(3,4-dichlorobenzoyl)-6-methyl-4-oxo-2-[(propan-2-yl)amino]-5,6,7,8-tetrahydropyrido[3,4-d]pyrimidin-3(4H)-yl]-N-methylbenzamide] were, in that order, 0.06 µM and 34.9 µM.
For `CNC(=O)c1ccc(-n2c(N[C@@H](C)C3CC3)nc3c(c2=O)C[C@@H](C)N(C(=O)c2ccc(Cl)c(Cl)c2)C3)cc1` [Compound C294, 4-[(6R)-2-{[(1S)-1-cyclopropylethyl]amino}-7-(3,4-dichlorobenzoyl)-6-methyl-4-oxo-5,6,7,8-tetrahydropyrido[3,4-d]pyrimidin-3(4H)-yl]-N-methylbenzamide], in series [1], the half-maximal effective concentration (EC50) is 0.05 µM. In addition, in the series “in vitro”, it took 26.5 µM to reach half-maximal cytotoxicity (CC50 at 3 days).
The like results for `CNC(=O)c1ccc(-n2c(N[C@H](C)C3CC3)nc3c(c2=O)C[C@@H](C)N(C(=O)c2ccc(Cl)c(Cl)c2)C3)cc1` [Compound C295, 4-[(6R)-2-{[(1R)-1-cyclopropylethyl]amino}-7-(3,4-dichlorobenzoyl)-6-methyl-4-oxo-5,6,7,8-tetrahydropyrido[3,4-d]pyrimidin-3(4H)-yl]-N-methylbenzamide] were, in that order, 0.22 µM and 37.2 µM.
The like results for `CNC(=O)c1ccc(-n2c(NC3(C)CC3)nc3c(c2=O)C[C@@H](C)N(C(=O)c2ccc(Cl)c(Cl)c2)C3)cc1` [Compound C297, 4-[(6R)-7-(3,4-dichlorobenzoyl)-6-methyl-2-[(1-methylcyclopropyl)amino]-4-oxo-5,6,7,8-tetrahydropyrido[3,4-d]pyrimidin-3(4H)-yl]-N-methylbenzamide] were, in that order, 0.05 µM and over 50 µM.
Taken in the same sequence, the figures for `CNC(=O)c1ccc(-n2c(NC(C)C)nc3c(c2=O)C[C@@H](C)N(C(=O)c2ccc(Cl)c(Cl)c2)C3)c(C)c1` [Compound C300a, 4-[(6R)-7-(3,4-dichlorobenzoyl)-6-methyl-4-oxo-2-[(propan-2-yl)amino]-5,6,7,8-tetrahydropyrido[3,4-d]pyrimidin-3(4H)-yl]-N,3-dimethylbenzamide] were 0.06 µM and over 50 µM.
Consider `C#C[C@H](C)Nc1nc2c(c(=O)n1-c1ccc(C(=O)NC)cc1)C[C@@H](C)N(C(=O)c1ccc(Cl)c(Cl)c1)C2` [Compound C302, 4-[(6R)-2-{[(2S)-but-3-yn-2-yl]amino}-7-(3,4-dichlorobenzoyl)-6-methyl-4-oxo-5,6,7,8-tetrahydropyrido[3,4-d]pyrimidin-3(4H)-yl]-N-methylbenzamide], for which the EC50 in series [1] was found to be 0.06 µM. For the same compound, the CC50 at 3 days in the series “in vitro” is over 50 µM.
Taken in the same sequence, the figures for `CNC(=O)c1ccc(-n2c(N3CCC3(C)C)nc3c(c2=O)C[C@@H](C)N(C(=O)c2ccc(Cl)c(Cl)c2)C3)cc1` [Compound C303, 4-[(6R)-7-(3,4-dichlorobenzoyl)-2-(2,2-dimethylazetidin-1-yl)-6-methyl-4-oxo-5,6,7,8-tetrahydropyrido[3,4-d]pyrimidin-3(4H)-yl]-N-methylbenzamide] were 0.07 µM and 26.7 µM.
Taken in the same sequence, the figures for `CNC(=O)c1ccc(-n2c(NC(C)C)nc3c(c2=O)C[C@@H](C)N(C(=O)c2ccc(Cl)c(Cl)c2)C3)nc1` [Compound C304, 6-[(6R)-7-(3,4-dichlorobenzoyl)-6-methyl-4-oxo-2-[(propan-2-yl)amino]-5,6,7,8-tetrahydropyrido[3,4-d]pyrimidin-3(4H)-yl]-N-methylpyridine-3-carboxamide] were 0.07 µM and over 50 µM.
Turning to `CNc1noc2cc(-n3c(NC(C)C)nc4c(c3=O)C[C@@H](C)N(C(=O)c3ccc(Cl)c(Cl)c3)C4)ccc12` [Compound C305, (6R)-7-(3,4-dichlorobenzoyl)-6-methyl-3-[3-(methylamino)-1,2-benzoxazol-6-yl]-2-[(propan-2-yl)amino]-5,6,7,8-tetrahydropyrido[3,4-d]pyrimidin-4(3H)-one], the concentration giving a half-maximal response (EC50) in series [1] worked out at 0.07 µM. In “in vitro”, this compound yielded a cytotoxic concentration (CC50) at 3 days of over 50 µM.
For `CNC(=O)c1ccc(-n2c(N[C@@H](C)c3cccc(F)c3)nc3c(c2=O)C[C@@H](C)N(C(=O)c2ccc(Cl)c(Cl)c2)C3)cc1` [Compound C306, 4-[(6R)-7-(3,4-dichlorobenzoyl)-2-{[(1S)-1-(3-fluorophenyl)ethyl]amino}-6-methyl-4-oxo-5,6,7,8-tetrahydropyrido[3,4-d]pyrimidin-3(4H)-yl]-N-methylbenzamide], the half-maximal effective concentration (EC50) in series [1] was determined as 0.08 µM. In addition, the CC50 at 3 days in “in vitro” worked out at 19.3 µM.
The like results for `CNC(=O)c1ccc(-n2c(N3CCCC3(C)C)nc3c(c2=O)C[C@@H](C)N(C(=O)c2ccc(Cl)c(Cl)c2)C3)cc1` [Compound C307, 4-[(6R)-7-(3,4-dichlorobenzoyl)-2-(2,2-dimethylpyrrolidin-1-yl)-6-methyl-4-oxo-5,6,7,8-tetrahydropyrido[3,4-d]pyrimidin-3(4H)-yl]-N-methylbenzamide] were, in that order, 0.09 µM and 28 µM.
The like results for `Cc1cc(-n2cccn2)ccc1-n1c(NC(C)C)nc2c(c1=O)C[C@@H](C)N(C(=O)c1ccc(Cl)c(Cl)c1)C2` [Compound C308, (6R)-7-(3,4-dichlorobenzoyl)-6-methyl-3-[2-methyl-4-(1H-pyrazol-1-yl)phenyl]-2-[(propan-2-yl)amino]-5,6,7,8-tetrahydropyrido[3,4-d]pyrimidin-4(3H)-one] were, in that order, 0.11 µM and over 50 µM.
Regarding `CC(C)Nc1nc2c(c(=O)n1-c1ccc(-c3nccn3C)cc1Cl)C[C@@H](C)N(C(=O)c1ccc(Cl)c(Cl)c1)C2` [Compound C313, (6R)-3-[2-chloro-4-(1-methyl-1H-imidazol-2-yl)phenyl]-7-(3,4-dichlorobenzoyl)-6-methyl-2-[(propan-2-yl)amino]-5,6,7,8-tetrahydropyrido[3,4-d]pyrimidin-4(3H)-one], the concentration giving a half-maximal response (EC50) in series [1] amounted to 0.12 µM. In the series “in vitro”, this compound showed a cytotoxic concentration (CC50) at 3 days of 24.4 µM.
As for `CNC(=O)c1ccc(-n2c(N[C@@H](C)c3ccccc3F)nc3c(c2=O)C[C@@H](C)N(C(=O)c2ccc(Cl)c(Cl)c2)C3)cc1` [Compound C316, 4-[(6R)-7-(3,4-dichlorobenzoyl)-2-{[(1S)-1-(2-fluorophenyl)ethyl]amino}-6-methyl-4-oxo-5,6,7,8-tetrahydropyrido[3,4-d]pyrimidin-3(4H)-yl]-N-methylbenzamide], in series [1], the EC50 is 0.13 µM. In “in vitro”, this compound had a CC50 at 3 days of 27.8 µM.

The record behind these values is patent US20230091047A1 (priority 2019, published 2023).
